In paper PMC8699473, “An Easily Expandable Multi-Drug LC-MS Assay for the Simultaneous Quantification of 57 Oral Antitumor Drugs in Human Plasma” (Cancers, 2021):

Key:
[1] = Freeze-thaw stability in spiked pooled human plasma; assay type: physicochemical
[2] = Long-term stability in spiked pooled human plasma
[3] = Autosampler stability of ready for injection samples; assay type: physicochemical, human
[4] = parameters: method as in supplement references [1-55] as printed per drug; details: minimum steady-state blood plasma concentration after multiple dose administration; ref supplement references [1-55] per drug; cited from earlier work
[5] = Short-term stability in spiked pooled human plasma (bench-top, 4 °C, 56 °C)

CCc1cc2c(cc1N1CCC(N3CCOCC3)CC1)C(C)(C)c1[nH]c3cc(C#N)ccc3c1C2=O [Alectinib]
Freeze-Thaw Accuracy [%] ([1]; validation standard 2xLLOV): 100.0% | Freeze-Thaw Accuracy [%] ([1]; validation standard LLOV): 91.2% | Freeze-Thaw Accuracy [%] ([1]; validation standard MOV): 101.2% | Freeze-Thaw Accuracy [%] ([1]; validation standard ULOV): 96.5% | Long-term stability, 1 month, -20°C Accuracy [%] ([2]; validation standard 2xLLOV): 87.1% | Long-term stability, 1 month, -80°C Accuracy [%] ([2]; validation standard 2xLLOV): 83.3% | Long-term stability, 2 month, -20°C Accuracy [%] ([2]; validation standard 2xLLOV): 86.4% | Long-term stability, 2 month, -80°C Accuracy [%] ([2]; validation standard 2xLLOV): 86.9% | Long-term stability, 3 month, -20°C Accuracy [%] ([2]; validation standard 2xLLOV): 82.7% | Long-term stability, 3 month, -80°C Accuracy [%] ([2]; validation standard 2xLLOV): 86.1% | Long-term stability, 6 weeks, 4°C, without daylight Accuracy [%] ([2]; validation standard 2xLLOV): 81.2% | Long-term stability, 1 month, -20°C Accuracy [%] ([2]; validation standard LLOV): 84.7% | Long-term stability, 1 month, -80°C Accuracy [%] ([2]; validation standard LLOV): 83.5% | Long-term stability, 2 month, -20°C Accuracy [%] ([2]; validation standard LLOV): 79.9% | Long-term stability, 2 month, -80°C Accuracy [%] ([2]; validation standard LLOV): 81.8% | Long-term stability, 3 month, -20°C Accuracy [%] ([2]; validation standard LLOV): 79.0% | Long-term stability, 3 month, -80°C Accuracy [%] ([2]; validation standard LLOV): 81.6% | Long-term stability, 6 weeks, 4°C, without daylight Accuracy [%] ([2]; validation standard LLOV): 75.7% | Long-term stability, 1 month, -20°C Accuracy [%] ([2]; validation standard MOV): 85.8% | Long-term stability, 1 month, -80°C Accuracy [%] ([2]; validation standard MOV): 83.9% | Long-term stability, 2 month, -20°C Accuracy [%] ([2]; validation standard MOV): 89.5% | Long-term stability, 2 month, -80°C Accuracy [%] ([2]; validation standard MOV): 89.3% | Long-term stability, 3 month, -20°C Accuracy [%] ([2]; validation standard MOV): 88.4% | Long-term stability, 3 month, -80°C Accuracy [%] ([2]; validation standard MOV): 86.7% | Long-term stability, 6 weeks, 4°C, without daylight Accuracy [%] ([2]; validation standard MOV): 92.7% | Long-term stability, 1 month, -20°C Accuracy [%] ([2]; validation standard ULOV): 85.2% | Long-term stability, 1 month, -80°C Accuracy [%] ([2]; validation standard ULOV): 81.7% | Long-term stability, 2 month, -20°C Accuracy [%] ([2]; validation standard ULOV): 88.3% | Long-term stability, 2 month, -80°C Accuracy [%] ([2]; validation standard ULOV): 88.1% | Long-term stability, 3 month, -20°C Accuracy [%] ([2]; validation standard ULOV): 84.7% | Long-term stability, 3 month, -80°C Accuracy [%] ([2]; validation standard ULOV): 84.8% | Long-term stability, 6 weeks, 4°C, without daylight Accuracy [%] ([2]; validation standard ULOV): 86.5% | Autosampler (24h, 4°C) Accuracy [%] ([3]; validation standard 2xLLOV): 99.6% | Autosampler (72h, 4°C) Accuracy [%] ([3]; validation standard 2xLLOV): 102.6% | Autosampler (24h, 4°C) Accuracy [%] ([3]; validation standard LLOV): 91.8% | Autosampler (72h, 4°C) Accuracy [%] ([3]; validation standard LLOV): 93.7% | Autosampler (24h, 4°C) Accuracy [%] ([3]; validation standard MOV): 104.1% | Autosampler (72h, 4°C) Accuracy [%] ([3]; validation standard MOV): 104.1% | Autosampler (24h, 4°C) Accuracy [%] ([3]; validation standard ULOV): 99.3% | Autosampler (72h, 4°C) Accuracy [%] ([3]; validation standard ULOV): 100.6%

COc1cc(Nc2c(C#N)cnc3cc(OCCCN4CCN(C)CC4)c(OC)cc23)c(Cl)cc1Cl [Bosutinib]
Freeze-Thaw Accuracy [%] ([1]; validation standard 2xLLOV): 89.9% | Freeze-Thaw Accuracy [%] ([1]; validation standard LLOV): 102.2% | Freeze-Thaw Accuracy [%] ([1]; validation standard MOV): 92.6% | Freeze-Thaw Accuracy [%] ([1]; validation standard ULOV): 94.6% | cmin [4]: 147 ng/mL

COc1cc2ncnc(Nc3ccc(F)c(Cl)c3)c2cc1NC(=O)/C=C/CN1CCCCC1 [Dacomitinib]
Freeze-Thaw Accuracy [%] ([1]; validation standard 2xLLOV): 92.5% | Freeze-Thaw Accuracy [%] ([1]; validation standard LLOV): 89.8% | Freeze-Thaw Accuracy [%] ([1]; validation standard MOV): 95.9% | Freeze-Thaw Accuracy [%] ([1]; validation standard ULOV): 96.3% | Long-term stability, 1 month, -20°C Accuracy [%] ([2]; validation standard 2xLLOV): 94.4% | Long-term stability, 1 month, -80°C Accuracy [%] ([2]; validation standard 2xLLOV): 91.2% | Long-term stability, 2 month, -20°C Accuracy [%] ([2]; validation standard 2xLLOV): 96.1% | Long-term stability, 2 month, -80°C Accuracy [%] ([2]; validation standard 2xLLOV): 107.1% | Long-term stability, 3 month, -20°C Accuracy [%] ([2]; validation standard 2xLLOV): 89.4% | Long-term stability, 3 month, -80°C Accuracy [%] ([2]; validation standard 2xLLOV): 94.7% | Long-term stability, 6 weeks, 4°C, without daylight Accuracy [%] ([2]; validation standard 2xLLOV): 62.3% | Long-term stability, 1 month, -20°C Accuracy [%] ([2]; validation standard LLOV): 86.5% | Long-term stability, 1 month, -80°C Accuracy [%] ([2]; validation standard LLOV): 87.2% | Long-term stability, 2 month, -20°C Accuracy [%] ([2]; validation standard LLOV): 96.8% | Long-term stability, 2 month, -80°C Accuracy [%] ([2]; validation standard LLOV): 105.1% | Long-term stability, 3 month, -20°C Accuracy [%] ([2]; validation standard LLOV): 83.4% | Long-term stability, 3 month, -80°C Accuracy [%] ([2]; validation standard LLOV): 96.1% | Long-term stability, 6 weeks, 4°C, without daylight Accuracy [%] ([2]; validation standard LLOV): 61.0% | Long-term stability, 1 month, -20°C Accuracy [%] ([2]; validation standard MOV): 91.7% | Long-term stability, 1 month, -80°C Accuracy [%] ([2]; validation standard MOV): 95.2% | Long-term stability, 2 month, -20°C Accuracy [%] ([2]; validation standard MOV): 95.1% | Long-term stability, 2 month, -80°C Accuracy [%] ([2]; validation standard MOV): 99.2% | Long-term stability, 3 month, -20°C Accuracy [%] ([2]; validation standard MOV): 90.9% | Long-term stability, 3 month, -80°C Accuracy [%] ([2]; validation standard MOV): 99.4% | Long-term stability, 6 weeks, 4°C, without daylight Accuracy [%] ([2]; validation standard MOV): 79.1% | Long-term stability, 1 month, -20°C Accuracy [%] ([2]; validation standard ULOV): 93.0% | Long-term stability, 1 month, -80°C Accuracy [%] ([2]; validation standard ULOV): 93.2% | Long-term stability, 2 month, -20°C Accuracy [%] ([2]; validation standard ULOV): 96.3% | Long-term stability, 2 month, -80°C Accuracy [%] ([2]; validation standard ULOV): 99.6% | Long-term stability, 3 month, -20°C Accuracy [%] ([2]; validation standard ULOV): 90.3% | Long-term stability, 3 month, -80°C Accuracy [%] ([2]; validation standard ULOV): 97.6% | Long-term stability, 6 weeks, 4°C, without daylight Accuracy [%] ([2]; validation standard ULOV): 77.8% | Autosampler (24h, 4°C) Accuracy [%] ([3]; validation standard 2xLLOV): 102.5% | Autosampler (72h, 4°C) Accuracy [%] ([3]; validation standard 2xLLOV): 99.5% | Autosampler (24h, 4°C) Accuracy [%] ([3]; validation standard LLOV): 93.3% | Autosampler (72h, 4°C) Accuracy [%] ([3]; validation standard LLOV): 92.3% | Autosampler (24h, 4°C) Accuracy [%] ([3]; validation standard MOV): 104.5% | Autosampler (72h, 4°C) Accuracy [%] ([3]; validation standard MOV): 100.5% | Autosampler (24h, 4°C) Accuracy [%] ([3]; validation standard ULOV): 98.4% | Autosampler (72h, 4°C) Accuracy [%] ([3]; validation standard ULOV): 98.0% | Short-time stability (1h, 56°C) Accuracy [%] ([5]; validation standard 2xLLOV): 30.6% | Short-time stability (24h, 4°C, without daylight) Accuracy [%] ([5]; validation standard 2xLLOV): 94.9% | Short-time stability (24h, RT, with daylight) Accuracy [%] ([5]; validation standard 2xLLOV): 86.7% | Short-time stability (24h, RT, without daylight) Accuracy [%] ([5]; validation standard 2xLLOV): 88.5% | Short-time stability (1h, 56°C) Accuracy [%] ([5]; validation standard LLOV): 10.3% | Short-time stability (24h, 4°C, without daylight) Accuracy [%] ([5]; validation standard LLOV): 90.8% | Short-time stability (24h, RT, with daylight) Accuracy [%] ([5]; validation standard LLOV): 74.6% | Short-time stability (24h, RT, without daylight) Accuracy [%] ([5]; validation standard LLOV): 72.7% | Short-time stability (1h, 56°C) Accuracy [%] ([5]; validation standard MOV): 37.3% | Short-time stability (24h, 4°C, without daylight) Accuracy [%] ([5]; validation standard MOV): 97.9% | Short-time stability (24h, RT, with daylight) Accuracy [%] ([5]; validation standard MOV): 89.8% | Short-time stability (24h, RT, without daylight) Accuracy [%] ([5]; validation standard MOV): 91.1% | Short-time stability (1h, 56°C) Accuracy [%] ([5]; validation standard ULOV): 33.3% | Short-time stability (24h, 4°C, without daylight) Accuracy [%] ([5]; validation standard ULOV): 92.4% | Short-time stability (24h, RT, with daylight) Accuracy [%] ([5]; validation standard ULOV): 85.6% | Short-time stability (24h, RT, without daylight) Accuracy [%] ([5]; validation standard ULOV): 89.1% | cmin [4]: 73.1 ng/mL
